Test results published in patent US11382328B2, “Rapid drug discovery methods for pathogen inactivation” (priority 2019, dated 2022).

System: E. coli strain W3110
Test: Synergy assays: Biolog chemical sensitivity panels with Group IB metal, coefficient of drug interaction (CDI) from relative growth
Type: cell-based

Q: spiramycin was tested. Which “CDI (coefficient of drug interaction)” value (Copper (mM), 1st of 3 copper concentrations (head line not shown), biocide concentration 1 of 4, E. coli) did it give?
A: 1.00

Q: What about the “CDI (coefficient of drug interaction)” value (Copper (mM), 1st of 3 copper concentrations (head line not shown), biocide concentration 3 of 4, E. coli) of the same substance?
A: 0.94

Q: And the “CDI (coefficient of drug interaction)” value (Copper (mM), 1st of 3 copper concentrations (head line not shown), biocide concentration 4 of 4, E. coli)?
A: Tox

Q: What about the “CDI (coefficient of drug interaction)” value (Copper (mM), 2nd of 3 copper concentrations (head line not shown), biocide concentration 1 of 4, E. coli) of the same substance?
A: 0.89

Q: What about the “CDI (coefficient of drug interaction)” value (Copper (mM), 2nd of 3 copper concentrations (head line not shown), biocide concentration 2 of 4, E. coli) of the same substance?
A: Tox

Q: And the “CDI (coefficient of drug interaction)” value (Copper (mM), 2nd of 3 copper concentrations (head line not shown), biocide concentration 3 of 4, E. coli)?
A: Tox

Q: And the “CDI (coefficient of drug interaction)” value (Copper (mM), 2nd of 3 copper concentrations (head line not shown), biocide concentration 4 of 4, E. coli)?
A: Tox

Q: What about the “CDI (coefficient of drug interaction)” value (Copper (mM), 3rd of 3 copper concentrations (head line not shown), biocide concentration 1 of 4, E. coli) of the same substance?
A: 0.92

Q: And the “CDI (coefficient of drug interaction)” value (Copper (mM), 3rd of 3 copper concentrations (head line not shown), biocide concentration 2 of 4, E. coli)?
A: 0.91

Q: What about the “CDI (coefficient of drug interaction)” value (Copper (mM), 3rd of 3 copper concentrations (head line not shown), biocide concentration 3 of 4, E. coli) of the same substance?
A: 3.40

Q: What about the “CDI (coefficient of drug interaction)” value (Copper (mM), 3rd of 3 copper concentrations (head line not shown), biocide concentration 4 of 4, E. coli) of the same substance?
A: Tox

Q: And the “CDI (coefficient of drug interaction)” value (Gold section of Table 5, first of three gold concentrations (μM, value not given), biocide concentration 1 of 4)?
A: 1.03

Q: What about the “CDI (coefficient of drug interaction)” value (Gold section of Table 5, first of three gold concentrations (μM, value not given), biocide concentration 2 of 4) of the same substance?
A: 1.00

Q: What about the “CDI (coefficient of drug interaction)” value (Gold section of Table 5, first of three gold concentrations (μM, value not given), biocide concentration 3 of 4) of the same substance?
A: Tox

Q: And the “CDI (coefficient of drug interaction)” value (Gold section of Table 5, first of three gold concentrations (μM, value not given), biocide concentration 4 of 4)?
A: Tox

Q: What about the “CDI (coefficient of drug interaction)” value (Gold section of Table 5, second of three gold concentrations (μM, value not given), biocide concentration 2 of 4) of the same substance?
A: 0.67

Q: What about the “CDI (coefficient of drug interaction)” value (Gold section of Table 5, second of three gold concentrations (μM, value not given), biocide concentration 3 of 4) of the same substance?
A: Tox

Q: What about the “CDI (coefficient of drug interaction)” value (Gold section of Table 5, second of three gold concentrations (μM, value not given), biocide concentration 4 of 4) of the same substance?
A: Tox

Q: What about the “CDI (coefficient of drug interaction)” value (Gold section of Table 5, third of three gold concentrations (μM, value not given), biocide concentration 1 of 4) of the same substance?
A: 0.84

Q: What about the “CDI (coefficient of drug interaction)” value (Gold section of Table 5, third of three gold concentrations (μM, value not given), biocide concentration 2 of 4) of the same substance?
A: 0.33

Q: And the “CDI (coefficient of drug interaction)” value (Gold section of Table 5, third of three gold concentrations (μM, value not given), biocide concentration 3 of 4)?
A: Tox

Q: What about the “CDI (coefficient of drug interaction)” value (Gold section of Table 5, third of three gold concentrations (μM, value not given), biocide concentration 4 of 4) of the same substance?
A: Tox

Q: What about the CDI (Silver 0.5 μM, biocide concentration 1 of 4) of the same substance?
A: 0.83

Q: What about the CDI (Silver 0.5 μM, biocide concentration 2 of 4) of the same substance?
A: Tox

Q: What about the CDI (Silver 0.5 μM, biocide concentration 3 of 4) of the same substance?
A: Tox

Q: What about the CDI (Silver 0.5 μM, biocide concentration 4 of 4) of the same substance?
A: Tox

Q: What about the CDI (Silver 1.0 μM, biocide concentration 1 of 4) of the same substance?
A: 0.96

Q: What about the CDI (Silver 1.0 μM, biocide concentration 2 of 4) of the same substance?
A: Tox

Q: What about the CDI (Silver 1.0 μM, biocide concentration 3 of 4) of the same substance?
A: Tox

Q: What about the CDI (Silver 1.0 μM, biocide concentration 4 of 4) of the same substance?
A: Tox

Q: What about the CDI (Silver 5.0 μM, biocide concentration 1 of 4) of the same substance?
A: 0.83

Q: What about the CDI (Silver 5.0 μM, biocide concentration 2 of 4) of the same substance?
A: Tox

Q: What about the CDI (Silver 5.0 μM, biocide concentration 3 of 4) of the same substance?
A: Tox

Q: What about the CDI (Silver 5.0 μM, biocide concentration 4 of 4) of the same substance?
A: Tox
